Biological target: T1, leucine aminopeptidase (Sus scrofa, UniProt P15145)
T1 construct: purchased Sigma L0632
Assay: Enzyme cleavage of 4′ blocking group by leucine aminopeptidase
Format: biochemical
Conditions: 0.25 units leucine aminopeptidase, 37° C., 47 mM sodium phosphate pH 7.2, 3.3% methanol
Protocol: 1 mg of 4′-C-(N-Leucylaminomethyl)thymidine (21) is incubated at 37° C. in 47 mM sodium phosphate pH 7.2 with 3.3% methanol and 0.25 units leucine aminopeptidase (Sigma L0632), to a final volume of 200 ul.
The products resulting from a), b) or c) above are analysed by thin layer chromatography using reverse phase plates with 10% acetonitrile in water or by electrospray mass spectrometry. Successful cleavage reactions yield nucleosides running concurrently with 4′-aminomethylthymidine which is used as a standard.

T1 sequence (P15145 whole entry): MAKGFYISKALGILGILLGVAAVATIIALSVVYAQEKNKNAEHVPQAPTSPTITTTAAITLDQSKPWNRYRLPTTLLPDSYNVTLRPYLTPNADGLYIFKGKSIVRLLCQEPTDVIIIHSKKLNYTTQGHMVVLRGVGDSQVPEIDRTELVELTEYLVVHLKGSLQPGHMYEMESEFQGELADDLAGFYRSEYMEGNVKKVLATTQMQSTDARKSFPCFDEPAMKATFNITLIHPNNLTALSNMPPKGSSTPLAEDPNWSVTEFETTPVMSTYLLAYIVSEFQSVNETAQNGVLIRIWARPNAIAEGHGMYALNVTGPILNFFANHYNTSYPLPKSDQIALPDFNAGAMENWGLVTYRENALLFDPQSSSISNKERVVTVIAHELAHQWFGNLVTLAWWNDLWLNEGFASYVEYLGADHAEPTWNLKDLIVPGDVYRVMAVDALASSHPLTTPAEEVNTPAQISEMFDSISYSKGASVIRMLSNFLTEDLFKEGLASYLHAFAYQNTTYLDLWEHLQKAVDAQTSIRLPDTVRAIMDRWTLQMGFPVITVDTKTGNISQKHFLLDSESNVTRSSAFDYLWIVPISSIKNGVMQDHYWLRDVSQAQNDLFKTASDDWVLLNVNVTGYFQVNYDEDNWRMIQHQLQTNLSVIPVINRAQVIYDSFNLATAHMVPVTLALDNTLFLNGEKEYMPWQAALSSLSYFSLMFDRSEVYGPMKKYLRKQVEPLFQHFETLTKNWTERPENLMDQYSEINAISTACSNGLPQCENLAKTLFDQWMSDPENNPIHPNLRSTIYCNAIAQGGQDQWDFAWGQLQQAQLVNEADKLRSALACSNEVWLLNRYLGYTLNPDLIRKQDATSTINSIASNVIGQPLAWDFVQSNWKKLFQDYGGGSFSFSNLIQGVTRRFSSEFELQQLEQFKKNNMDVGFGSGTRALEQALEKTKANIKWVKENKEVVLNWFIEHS

Cc1cn([C@H]2C[C@H](O)[C@](CO)(CNC(=O)[C@@H](N)CC(C)C)O2)c(=O)[nH]c1=O [compound (21), 4′-C-(N-Leucylaminomethyl)thymidine]
cleavage of 4′ blocking group (mass spectrometric detection of daughter ion mass 242): enzyme induced cleavage of the amino acid
